Experimental data as given in US20060183902A1, “Dihydroindolyl methanones as alpha 1a/1d adrenoreceptor modulators for the treatment of benign prostatic hypertrophy and lower urinary tract symptoms” (priority 2005, published 2006).
pKi: −log10 of the molar value. Where “and” joins values, the source holds several entries; their conditions need not be identical. Equal entries are not always repeated.

Columns and labels:
[1] = molecular target: T1, α1a-AR (Homo sapiens, UniProt P35348); assay: α1-Adrenergic receptor radio-ligand (125I-HEAT) binding assay, α1a subtype; settings: COS-7 cell membranes transfected with α1a-AR, 125I-HEAT 50 pM; read-out: Receptor Binding, Ki α1a-AR
T1 construct: expressed in transfected cells; host or cells: COS-7
T1 sequence (P35348 1-466): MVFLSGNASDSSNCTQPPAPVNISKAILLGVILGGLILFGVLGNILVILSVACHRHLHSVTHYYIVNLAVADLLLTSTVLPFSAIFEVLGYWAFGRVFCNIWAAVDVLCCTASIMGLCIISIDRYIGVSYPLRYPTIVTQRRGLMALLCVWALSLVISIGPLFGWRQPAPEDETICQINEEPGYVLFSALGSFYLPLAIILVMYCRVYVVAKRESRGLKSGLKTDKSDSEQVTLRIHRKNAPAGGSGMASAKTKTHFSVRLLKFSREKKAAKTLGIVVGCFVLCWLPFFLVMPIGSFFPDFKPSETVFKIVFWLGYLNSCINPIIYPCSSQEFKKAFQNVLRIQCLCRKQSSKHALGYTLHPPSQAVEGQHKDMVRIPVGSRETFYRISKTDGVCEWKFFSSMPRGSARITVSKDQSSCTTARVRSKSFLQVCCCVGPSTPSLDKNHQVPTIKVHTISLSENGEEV
Description: (§1) Membranes were prepared from COS-7 cells (African Green monkey kidney SV40-transformed cells) that had been transfected with one of the three α1-AR subtypes by the following method:
(§2) COS cells from ten 100 mm tissue culture plates were scraped into a 5 mL volume of TE (a mixture of 50 mM tris(hydroxymethyl)aminomethane hydrochloride (Tris-HCl) and 5 mM ethylenediaminetetraacetic acid (EDTA) at pH 7.4). The cell suspension was disrupted with a Brinkman Polytron (at a setting of 8) for 10 sec. The disrupted cells were centrifuged at 1000×g for 10 min at 4° C. Supernatants were centrifuged at 34,500×g for 20 min at 4° C. The membrane pellets were suspended in a 2 mL volume of TNE (a mixture of 50 mM Tris-HCl, 5 mM EDTA and 150 mM NaCl at pH7.4). An aliquot of the membrane suspension was stored at −70° C. until use. The protein concentration was determined using a BioRad “DC” protein assay kit following membrane solubilization with Triton X-100.
(§3) Triplicate determinations of radio-ligand binding in the presence of increasing concentrations of testing compound were made. The reagents were added to 96-well polypropylene plate wells. Each assay well contained 140 μL TNE, 25 μL ^125I-2-(β-4-hydroxyplenyl)ethylaminomethyltetralone (^125I-HEAT) (specific activity 2200 Ci/mmol, Dupont-New England Nuclear, 50 pM final), 10 μL testing compound dissolved in dimethyl sulfoxide (DMSO) (1 pM to 10 μM in half-log increments, final), and 25 μL appropriate α1-AR membrane subtype suspension in TNE (0.5 ng/μL for the α1a and α1b subtypes and 13 ng/μL for the α1d subtype). The plate was incubated at rt for 1 hr. The contents of the wells were filtered through a glass filter (type C) (GF/C) membrane Unifilter plate (Packard Instruments) using the Packard Filtermate cell harvester. The filter plates were dried in a vacuum oven for 30 min at 40° C. 25 μL Microscint 20 liquid scintillation fluid (Packard Instuments) was added to each well. The radioactive content was analyzed in the TopCount microplate scintillation counter (Packard Instruments).
(§4) The Ki values (in nM) shown in Table 1 were determined using GraphPad Prism software.

[2] = molecular target: T2, α1b-AR (Homo sapiens, UniProt P35368); assay: α1-Adrenergic receptor radio-ligand (125I-HEAT) binding assay, α1b subtype; settings: COS-7 cell membranes transfected with α1b-AR, 125I-HEAT 50 pM; read-out: Receptor Binding, Ki α1b-AR
T2 construct: expressed in transfected cells; host or cells: COS-7
T2 sequence (P35368 1-520): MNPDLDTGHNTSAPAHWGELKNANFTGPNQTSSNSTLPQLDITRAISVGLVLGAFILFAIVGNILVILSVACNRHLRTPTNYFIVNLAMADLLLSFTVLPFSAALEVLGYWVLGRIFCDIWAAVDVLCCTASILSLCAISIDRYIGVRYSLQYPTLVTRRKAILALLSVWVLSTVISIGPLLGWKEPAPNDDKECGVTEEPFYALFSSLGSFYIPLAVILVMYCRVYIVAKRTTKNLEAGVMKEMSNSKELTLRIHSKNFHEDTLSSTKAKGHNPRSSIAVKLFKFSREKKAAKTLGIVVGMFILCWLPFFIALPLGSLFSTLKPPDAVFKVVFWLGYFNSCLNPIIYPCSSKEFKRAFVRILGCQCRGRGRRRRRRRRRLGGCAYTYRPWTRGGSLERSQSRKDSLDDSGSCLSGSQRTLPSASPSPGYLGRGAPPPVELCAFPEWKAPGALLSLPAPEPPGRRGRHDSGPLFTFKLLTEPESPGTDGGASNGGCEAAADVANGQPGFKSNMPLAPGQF
Description: as §1, §2, §3, §4

[3] = molecular target: T3, α1d-AR (Homo sapiens, UniProt P25100); assay: α1-Adrenergic receptor radio-ligand (125I-HEAT) binding assay, α1d subtype; settings: COS-7 cell membranes transfected with α1d-AR, 125I-HEAT 50 pM; read-out: Receptor Binding, Ki α1d-AR
T3 construct: expressed in transfected cells; host or cells: COS-7
T3 sequence (P25100 1-572): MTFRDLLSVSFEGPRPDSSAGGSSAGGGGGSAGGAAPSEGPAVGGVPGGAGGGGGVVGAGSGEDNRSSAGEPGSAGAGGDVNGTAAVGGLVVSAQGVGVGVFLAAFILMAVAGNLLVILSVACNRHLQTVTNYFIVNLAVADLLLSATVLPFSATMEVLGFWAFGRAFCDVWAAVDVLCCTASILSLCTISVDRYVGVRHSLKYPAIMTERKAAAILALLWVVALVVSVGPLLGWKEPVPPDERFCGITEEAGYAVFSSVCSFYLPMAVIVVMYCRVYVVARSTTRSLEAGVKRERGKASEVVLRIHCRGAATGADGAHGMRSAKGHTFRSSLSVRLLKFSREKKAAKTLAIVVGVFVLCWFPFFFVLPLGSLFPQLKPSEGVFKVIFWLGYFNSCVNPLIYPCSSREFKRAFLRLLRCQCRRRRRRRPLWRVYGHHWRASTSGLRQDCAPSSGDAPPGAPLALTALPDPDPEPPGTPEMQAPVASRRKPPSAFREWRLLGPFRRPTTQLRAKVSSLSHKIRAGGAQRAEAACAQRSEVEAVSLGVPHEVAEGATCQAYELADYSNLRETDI
Description: as §1, §2, §3, §4

Row | Compound | pKi [1] | pKi [2] | pKi [3]
1 | Cc1ccc(S(=O)(=O)Nc2ccc3c(c2)N(C(=O)c2cccc(CN4CCN(c5ccccc5OC(C)C)CC4)c2)CC3)cc1 [Cpd 46, N-(1-{3-[4-(2-isopropoxy-phenyl)-piperazin-1-ylmethyl]-benzoyl}-2,3-dihydro-1H-indol-6-yl)-4-methyl-benzenesulfonamide] | 8.23 | 6.62 | 8.25
2 | CC(C)Oc1ccccc1N1CCN(Cc2cccc(C(=O)N3CCc4ccc(NC(=O)c5ccc(F)cc5)cc43)c2)CC1 [Cpd 48, 4-fluoro-N-(1-{3-[4-(2-isopropoxy-phenyl)-piperazin-1-ylmethyl]-benzoyl}-2,3-dihydro-1H-indol-6-yl)-benzamide] | 7.13 | 6.05 | 8.22
3 | CC(C)Oc1ccccc1C1CCN(Cc2cccc(C(=O)N3CCc4ccccc43)c2)CC1 [Cpd 51, (2,3-dihydro-indol-1-yl)-{3-[4-(2-isopropoxy-phenyl)-piperidin-1-ylmethyl]-phenyl}-methanone] | 9.10 | 6.97 | 8.80
4 | O=C(c1ccc(CN2CCN(c3ccccc3OCC(F)(F)F)CC2)cc1)N1CCc2ccccc21 [Cpd 55, (2,3-dihydro-indol-1-yl)-(4-{4-[2-(2,2,2-trifluoro-ethoxy)-phenyl]-piperazin-1-ylmethyl}-phenyl)-methanone] | 7.59 | 6.51 | 7.37
5 | CC(C)Oc1ccccc1C1CCN(Cc2cccc(C(=O)N3CCc4ccc(NCc5ccccc5F)cc43)c2)CC1 [Cpd 57, [6-(2-fluoro-benzylamino)-2,3-dihydro-indol-1-yl]-{3-[4-(2-isopropoxy-phenyl)-piperidin-1-ylmethyl]-phenyl}-methanone] | 8.74 | 6.63 | 8.85
6 | COc1ccccc1C1CCN(Cc2cccc(C(=O)N3CCc4ccc(NCc5ccccc5F)cc43)c2)CC1 [Cpd 59, [6-(2-fluoro-benzylamino)-2,3-dihydro-indol-1-yl]-{3-[4-(2-methoxy-phenyl)-piperidin-1-ylmethyl]-phenyl}-methanone] | 8.08 | 7.00 | 8.96
7 | CC(C)Oc1ccccc1C1CCN(Cc2cccc(C(=O)N3CCc4ccc(NC(=O)Nc5c(F)cccc5F)cc43)c2)CC1 [Cpd 60, 1-(2,6-difluoro-phenyl)-3-(1-{3-[4-(2-isopropoxy-phenyl)-piperidin-1-ylmethyl]-benzoyl}-2,3-dihydro-1H-indol-6-yl)-urea] | 9.40 | 6.92 | 9.40
8 | CC(C)COc1ccccc1N1CCN(Cc2cccc(C(=O)N3CCc4ccccc43)c2)CC1 [Cpd 65, (2,3-dihydro-indol-1-yl)-{3-[4-(2-isobutoxy-phenyl)-piperazin-1-ylmethyl]-phenyl}-methanone] | 7.19 | 6.04 | 7.38

The next lines start with the values.

Row | pKi [1] | pKi [2] | pKi [3] | Compound
9 | 8.64 | 6.64 | 8.59 | CCS(=O)(=O)Nc1ccc2c(c1)N(C(=O)c1cccc(CN3CCN(c4ccccc4OC(C)C)CC3)c1)CC2 [Cpd 47, ethanesulfonic acid (1-{3-[4-(2-isopropoxy-phenyl)-piperazin-1-ylmethyl]-benzoyl}-2,3-dihydro-1H-indol-6-yl)-amide]
10 | 7.85 | 6.45 | 7.89 | CC(C)Oc1ccccc1N1CCN(Cc2cccc(C(=O)N3CCc4ccc(NC(N)=O)cc43)c2)CC1 [Cpd 49, (1-{3-[4-(2-isopropoxy-phenyl)-piperazin-1-ylmethyl]-benzoyl}-2,3-dihydro-1H-indol-6-yl)-urea]
11 | 8.11 | 6.34 | 7.49 | COc1ccccc1C1CCN(Cc2ccc(C(=O)N3CCc4ccccc43)cc2)CC1 [Cpd 50, (2,3-dihydro-indol-1-yl)-{4-[4-(2-methoxy-phenyl)-piperidin-1-ylmethyl]-phenyl}-methanone]
12 | 6.91 | 5.76 | 6.80 | CC(C)Oc1ccccc1CN1CCN(Cc2ccc(C(=O)N3CCc4ccccc43)cc2)CC1 [Cpd 52, (2,3-dihydro-indol-1-yl)-{4-[4-(2-isopropoxy-benzyl)-piperazin-1-ylmethyl]-phenyl}-methanone]
13 | 7.09 | 6.98 | 7.02 | COc1ccccc1CN1CCN(Cc2ccc(C(=O)N3CCc4ccccc43)cc2)CC1 [Cpd 53, (2,3-dihydro-indol-1-yl)-{4-[4-(2-methoxy-benzyl)-piperazin-1-ylmethyl]-phenyl}-methanone]
14 | 5.92 | 6.18 | 5.72 | CC(C)Oc1ccccc1CN1CCN(Cc2cccc(C(=O)N3CCc4ccccc43)c2)CC1 [Cpd 56, (2,3-dihydro-indol-1-yl)-{3-[4-(2-isopropoxy-benzyl)-piperazin-1-ylmethyl]-phenyl}-methanone]
15 | 9.10 and 9.30 | 6.63 and 6.59 | 8.72 and 9.00 | CC(C)Oc1ccccc1C1CCN(Cc2cccc(C(=O)N3CCc4ccc(NS(=O)(=O)c5c(F)cccc5F)cc43)c2)CC1 [Cpd 58, 2,6-difluoro-N-(1-{3-[4-(2-isopropoxy-phenyl)-piperidin 1-ylmethyl]-benzoyl}-2,3-dihydro-1H-indol-6-yl)-benzenesulfonamide]
16 | 7.81 | 6.82 | 8.68 | COc1ccccc1C1CCN(Cc2cccc(C(=O)N3CCc4ccc(NS(=O)(=O)c5c(F)cccc5F)cc43)c2)CC1 [Cpd 61, 2,6-difluoro-N-(1-{3-[4-(2-methoxy-phenyl)-piperidin-1-ylmethyl]-benzoyl}-2,3-dihydro-1H-indol-6-yl)-benzenesulfonamide]
17 | 6.98 | 6.84 | 7.00 | COc1ccccc1CN1CCN(Cc2cccc(C(=O)N3CCc4ccccc43)c2)CC1 [Cpd 64, (2,3-dihydro-indol-1-yl)-{3-[4-(2-methoxy-benzyl)-piperazin-1-ylmethyl]-phenyl}-methanone]
